{"source": "ChEMBL document CHEMBL1147954", "about": "“Synthesis and antiproliferative activity of some novel derivatives of diospyrin, a plant-derived naphthoquinonoid” (Bioorg Med Chem, 2007)", "data": [{"system": "A-375", "assay": "Cytotoxicity against human A375 cells after 24 hrs by MTT assay", "format": "functional, cell-based", "details": "A-375, 24 h", "units": {"IC50": "nM"}, "values": [{"smiles": "COc1cc(C)cc2c1C(=O)C=C(c1c(C)cc3c(c1OC)C(=O)C=CC3=O)C2=O", "IC50": 200}, {"smiles": "CCOc1cc(C)cc2c1C(=O)C=C(c1c(C)cc3c(c1OCC)C(=O)C=CC3=O)C2=O", "IC50": 1070}, {"smiles": "COc1cc(C)cc2c1C(=O)C=C(c1c(C)cc3c(c1OC)C(=O)C(NCCO)=CC3=O)C2=O", "IC50": 3180}, {"smiles": "CCOc1cc(C)cc2c(O)c(-c3c(C)cc4c(O)ccc(O)c4c3OCC)cc(O)c12", "IC50": 960}, {"smiles": "COc1cc(C)cc2c1C(=O)C=C(c1c(C)cc3c(c1OC)C(=O)C(SCCO)=CC3=O)C2=O", "IC50": 190}, {"smiles": "CCOc1cc(C)cc2c1C(=O)C=C(c1c(C)cc3c(c1OCC)C(=O)C(NCCO)=CC3=O)C2=O", "IC50": 70}, {"smiles": "COc1cc(C)cc2c1C(=O)C1OC1(c1c(C)cc3c(c1OC)C(=O)C1OC1C3=O)C2=O", "note": "(stereo unspecified)", "IC50": 30}, {"smiles": "Cc1cc(O)c2c(c1)C(=O)C(c1c(C)cc3c(c1O)C(=O)C=CC3=O)=CC2=O", "note": "[DIOSPYRIN]", "IC50": 820}, {"smiles": "COc1cccc2c1C(=O)c1c(O)c3c(c(O)c1C2=O)C[C@@](O)(C(=O)CO)C[C@@H]3O[C@H]1C[C@H](N)[C@H](O)[C@H](C)O1", "note": "[DOXORUBICIN]", "IC50": 10}]}, {"system": "HEp-2", "assay": "Cytotoxicity against human Hep2 cells after 24 hrs by MTT assay", "format": "functional, cell-based", "details": "HEp-2, 24 h", "units": {"IC50": "nM"}, "values": [{"smiles": "COc1cc(C)cc2c1C(=O)C=C(c1c(C)cc3c(c1OC)C(=O)C=CC3=O)C2=O", "IC50": 390}, {"smiles": "CCOc1cc(C)cc2c1C(=O)C=C(c1c(C)cc3c(c1OCC)C(=O)C=CC3=O)C2=O", "IC50": 2390}, {"smiles": "COc1cc(C)cc2c1C(=O)C=C(c1c(C)cc3c(c1OC)C(=O)C(NCCO)=CC3=O)C2=O", "IC50": 1410}, {"smiles": "CCOc1cc(C)cc2c(O)c(-c3c(C)cc4c(O)ccc(O)c4c3OCC)cc(O)c12", "IC50": 1670}, {"smiles": "COc1cc(C)cc2c1C(=O)C=C(c1c(C)cc3c(c1OC)C(=O)C(SCCO)=CC3=O)C2=O", "IC50": 1730}, {"smiles": "CCOc1cc(C)cc2c1C(=O)C=C(c1c(C)cc3c(c1OCC)C(=O)C(NCCO)=CC3=O)C2=O", "IC50": 850}, {"smiles": "COc1cc(C)cc2c1C(=O)C1OC1(c1c(C)cc3c(c1OC)C(=O)C1OC1C3=O)C2=O", "note": "(stereo unspecified)", "IC50": 210}, {"smiles": "Cc1cc(O)c2c(c1)C(=O)C(c1c(C)cc3c(c1O)C(=O)C=CC3=O)=CC2=O", "note": "[DIOSPYRIN]", "IC50": 3580}, {"smiles": "COc1cccc2c1C(=O)c1c(O)c3c(c(O)c1C2=O)C[C@@](O)(C(=O)CO)C[C@@H]3O[C@H]1C[C@H](N)[C@H](O)[C@H](C)O1", "note": "[DOXORUBICIN]", "IC50": 420}]}, {"system": "not listed separately", "assay": "Cytotoxicity against mouse EAC cells after 24 hrs by MTT assay", "format": "functional, cell-based", "details": "Ehrlich", "units": {"IC50": "nM"}, "values": [{"smiles": "COc1cc(C)cc2c1C(=O)C=C(c1c(C)cc3c(c1OC)C(=O)C=CC3=O)C2=O", "IC50": 650}, {"smiles": "CCOc1cc(C)cc2c1C(=O)C=C(c1c(C)cc3c(c1OCC)C(=O)C=CC3=O)C2=O", "IC50": 580}, {"smiles": "COc1cc(C)cc2c1C(=O)C=C(c1c(C)cc3c(c1OC)C(=O)C(NCCO)=CC3=O)C2=O", "IC50": 1070}, {"smiles": "CCOc1cc(C)cc2c(O)c(-c3c(C)cc4c(O)ccc(O)c4c3OCC)cc(O)c12", "IC50": 390}, {"smiles": "COc1cc(C)cc2c1C(=O)C=C(c1c(C)cc3c(c1OC)C(=O)C(SCCO)=CC3=O)C2=O", "IC50": 260}, {"smiles": "CCOc1cc(C)cc2c1C(=O)C=C(c1c(C)cc3c(c1OCC)C(=O)C(NCCO)=CC3=O)C2=O", "IC50": 30}, {"smiles": "COc1cc(C)cc2c1C(=O)C1OC1(c1c(C)cc3c(c1OC)C(=O)C1OC1C3=O)C2=O", "note": "(stereo unspecified)", "IC50": 90}, {"smiles": "Cc1cc(O)c2c(c1)C(=O)C(c1c(C)cc3c(c1O)C(=O)C=CC3=O)=CC2=O", "note": "[DIOSPYRIN]", "IC50": 840}, {"smiles": "COc1cccc2c1C(=O)c1c(O)c3c(c(O)c1C2=O)C[C@@](O)(C(=O)CO)C[C@@H]3O[C@H]1C[C@H](N)[C@H](O)[C@H](C)O1", "note": "[DOXORUBICIN]", "IC50": "> 10000"}]}, {"system": "PBMC", "assay": "Cytotoxicity against human PBMCs after 24 hrs by MTT assay", "format": "cell-based", "details": "not given", "units": {"IC50": "nM"}, "values": [{"smiles": "COc1cc(C)cc2c1C(=O)C=C(c1c(C)cc3c(c1OC)C(=O)C=CC3=O)C2=O", "IC50": 53300}, {"smiles": "CCOc1cc(C)cc2c1C(=O)C=C(c1c(C)cc3c(c1OCC)C(=O)C=CC3=O)C2=O", "IC50": 55500}, {"smiles": "COc1cc(C)cc2c1C(=O)C=C(c1c(C)cc3c(c1OC)C(=O)C(NCCO)=CC3=O)C2=O", "IC50": 21800}, {"smiles": "CCOc1cc(C)cc2c(O)c(-c3c(C)cc4c(O)ccc(O)c4c3OCC)cc(O)c12", "IC50": 59600}, {"smiles": "COc1cc(C)cc2c1C(=O)C=C(c1c(C)cc3c(c1OC)C(=O)C(SCCO)=CC3=O)C2=O", "IC50": 95500}, {"smiles": "CCOc1cc(C)cc2c1C(=O)C=C(c1c(C)cc3c(c1OCC)C(=O)C(NCCO)=CC3=O)C2=O", "IC50": 65400}, {"smiles": "COc1cc(C)cc2c1C(=O)C1OC1(c1c(C)cc3c(c1OC)C(=O)C1OC1C3=O)C2=O", "note": "(stereo unspecified)", "IC50": 98200}, {"smiles": "Cc1cc(O)c2c(c1)C(=O)C(c1c(C)cc3c(c1O)C(=O)C=CC3=O)=CC2=O", "note": "[DIOSPYRIN]", "IC50": 78300}, {"smiles": "COc1cccc2c1C(=O)c1c(O)c3c(c(O)c1C2=O)C[C@@](O)(C(=O)CO)C[C@@H]3O[C@H]1C[C@H](N)[C@H](O)[C@H](C)O1", "note": "[DOXORUBICIN]", "IC50": 15500}]}]}
